Measurements from patent US9243062B2, “Peptides for treatment and diagnosis of autoimmune disease” (priority 2005, dated 2016).
No end group written: not given here.

Columns and labels:
human pancreatic α cells = assay: Fluorescence microscopy: binding of biotinylated homodimer CDR peptides to human pancreatic α cells; format: cell-based; conditions: biotinylated homodimers; fluoresceinated antibiotin as second step reagent
Procedure: (§1) An N terminal cysteine was added to each of the hypervariable region sequences (CDR-L1-3 and CDR-H1-3, SEQ ID NOs:6 to 16) which were synthesised by Fmoc peptide synthesis and dimerised to form homodimers. Some of each of the homodimers was biotinylated; the biotinylated homodimers were then tested by fluorescence microscopy for their ability to bind to human pancreatic a cells (used as an indicator human tissue) by using fluoresceinated antibiotin as a second step reagent. […] The non-biotinylated homodimer peptides were then tested by ELISAs for their ability to bind to anti-TCR Vβ antibody and to cardiolipin as an indicator of phospholipids (Table 1).

[1] = ELISA binding to cardiolipin as an indicator of phospholipids; conditions: for Ratio Test/Control: cardiolipin vs ethyl alcohol control; for Optical density reading, ELISA, antigen cardiolipin: plate coated with cardiolipin in ethyl alcohol, tested against antibody or homodimer peptide, mean ± SD, three observations
Procedure: as §1

anti-TCR Vβ antibody = assay: ELISA binding to anti-TCR Vβ antibody; conditions: plate coated with homodimer peptide; for Optical density reading, ELISA, antigen α-TCRVβ antibody: tested against α-TCR Vβ, mean ± SD, three observations; for Ratio Test/Control: α-TCRVβ antibody vs PBS/culture medium control
Procedure: as §1

[2] = Phase IIb randomised double blind trial in type 2 diabetics after stopping antidiabetic medication; format: in vivo, human
Procedure: 31 subjects (21 males and 10 females) with type 2 diabetes mellitus on one or more oral antidiabetic medication(s) were entered into a randomised double blind study of 16 weeks duration. At day 01 all antidiabetic medication was stopped. Patients were randomised to either the placebo group (group C) or one of 3 treatment groups described as Groups A, B or D. All groups received a total of 4 IM injections spaced one week apart starting from day 01. The placebo group (8 subjects) received 1.2 ml of saline containing 0.1% alhydrogel. Group A (7 subjects) received 1.51 mg of a peptide according to the invention (designated as NDX-71 herein) in 1.2 ml saline containing 0.1% alhydrogel. Group B (8 subjects) received 0.86 mg NDX-71 in 1.2 ml saline containing 0.1% alhydrogel. Group D (8 subjects) received a mixture of 3 peptides of the invention (0.92 mg NDX-71, 0.68 mg C80 and 0.71 mg F90) in 1.2 ml saline containing 0.1% alhydrogel. Placebo and study medications were visibly identical. The NDX-71 peptide used in this example was the B71 peptide used in Example 6. The C80 and F90 peptides used in this example were the C80 and F90 peptides used in Example 6.
At regular intervals throughout the study period patients underwent blood tests for clinical safety and glycaemic efficacy parameters. […] Clinical safety parameters in all groups were unchanged from baseline. There were no adverse events reported in the study attributable to the test substances.

Substance	ability to bind to human pancreatic α cells (human pancreatic α cells)	Ratio Test/Control [1]	Optical density reading, ELISA, antigen cardiolipin [1]	Optical density reading, ELISA, antigen α-TCRVβ antibody (anti-TCR Vβ antibody)	Ratio Test/Control (anti-TCR Vβ antibody)	glycaemic control after cessation of antidiabetic medication ([2]; 1.51 mg dose)	dose dependence of effect ([2]; 1.51 mg vs 0.86 mg)	HbA1c, treatment difference vs placebo (group C) ([2]; 21 male volunteers subset, high dose group A (1.51 mg), p<0.001)	corrected fructosamine, treatment difference vs placebo (group C) ([2]; 21 male volunteers subset, high dose group A (1.51 mg), p=0.001)	fasting glucose, treatment difference vs placebo (group C) ([2]; 21 male volunteers subset, high dose group A (1.51 mg), p=0.005)	mean HbA1c level ([2]; baseline, high dose treatment group (1.51 mg NDX-71)) [%]	mean HbA1c level ([2]; day 113, high dose treatment group (1.51 mg NDX-71)) [%]	HbA1c levels over time vs placebo group ([2]; high dose treatment group (1.51 mg NDX-71), p=0.02)	glycaemic control compared with placebo ([2]; lower dose of 0.86 mg)
CDR-L3 (QQYNSYPLT; Protein Light chain HV3)	bound to the pancreatic α cells	2.23	0.254 ± 0.012	0.243 ± 0.008	1.74									
NDX-71: homodimer of CDR-H2 derived monomer peptides, each SEQ ID NO:8 (NIYPSDSYTNYNQKFKD) plus an N terminal cysteine (SEQ ID NO:159) (chain 1 CNIYPSDSYTNYNQKFKD; chain 2 CNIYPSDSYTNYNQKFKD; cysteine pairing not given here; also: homodimer)	bound to the pancreatic α cells	2.40	0.151 ± 0.020	0.307 ± 0.018	1.83	able to maintain good glycaemic control	dose response effect	Statistically significant treatment differences	Statistically significant treatment differences	Statistically significant treatment differences	6.3	6.9	significantly different from the placebo group	showed improvement as compared with placebo
CDR-H3: homodimer of CDR-H3 derived monomer peptides, each SEQ ID NO:10 (LRGLLPDY) plus an N terminal cysteine (SEQ ID NO:160) (chain 1 CLRGLLPDY; chain 2 CLRGLLPDY; cysteine pairing not given here; also: homodimer)	bound to the pancreatic α cells	2.16	0.132 ± 0.009	0.182 ± 0.009	2.00									
